# Reference: patent US20210035672A1, “METHOD AND […] FOR INDIVIDUALIZED ADMINISTRATION OF MEDICAMENTS FOR […] WITHIN A T[…]” (University Of Maryland, Baltimore, priority 2018, published 2021)
# Legend:
# [1] = Population pharmacokinetics of vancomycin in neonates (hierarchical Bayesian one-compartment model); format: in vivo
# From the text: Briefly, in step 305, a one-compartment linear disposition model with zero order input (one hour intravenous infusion) and first-order elimination was used to describe the data collected in step 301. In step 303 Weight (Wt) and estimated glomerular filtration rate (EGFR) were included as covariates on clearance (CL), and weight was included as covariate on volume of distribution (V). Back in step 305, a lognormal distribution was used to describe the between-subject-variability (BSV) in model parameter estimates CL and V, as expressed in Equation 8 and Equation 9.
# where CLi and Vi are the true parameters for the individual, CLtypical and Vtypical are the population value of the parameters, and ηCL and ηv denote the deviation between the typical value of the parameters and the true parameter value of an individual. The coefficient that describes the relationship between EGFR and CLtypical is denoted by CLEGFR. […] In Table 1, PM indicates posterior median; LCI indicates lower credible interval; and UCI indicates upper credible interval. In other embodiments, based on different datasets or different training approaches, the parameter values are expected to differ to some degree.
# [2] = cited from earlier work
compound,measurement,setting,value
CN[C@H](CC(C)C)C(=O)N[C@H]1C(=O)N[C@@H](CC(N)=O)C(=O)N[C@H]2C(=O)N[C@H]3C(=O)N[C@H](C(=O)N[C@H](C(=O)O)c4cc(O)cc(O)c4-c4cc3ccc4O)[C@H](O)c3ccc(c(Cl)c3)Oc3cc2cc(c3O[C@@H]2O[C@H](CO)[C@@H](O)[C@H](O)[C@H]2O[C@H]2C[C@](C)(N)[C@H](O)[C@H](C)O2)Oc2ccc(cc2Cl)[C@H]1O [vancomycin],"Interindividual variability CL, posterior median",[1]; in vivo,22.9 % CV
same,"Interindividual variability V, posterior median",[1]; in vivo,15.4 % CV
same,"Residual variability, proportional, posterior median",[1]; in vivo,17.3 % CV
same,"CLtypical, posterior median","[1]; typical individual 2.9 kg, estimated glomerular filtration rate of 30 mL/min per 1.73 m^2, one hour intravenous infusion",0.167 L/h
same,patients with AUC0-24 hr exceeding 600,[2]; current practice,over 30%
same,final target attainment,[2]; with TDM,~45%
same,neonates that initially achieve recommended target concentrations,"[2]; with dosing nomograms, studies across the US and Europe",37%
